Article PMC6010071, “Blocking oestradiol synthesis pathways with potent and selective coumarin derivatives” (Journal of Enzyme Inhibition and Medicinal Chemistry, 2018)

Assays:
[1] = biological target: T1, heterologously expressed human CYP1A2 enzyme (Homo sapiens, UniProt P05177); test: CYP1A2 inhibition; assay type: biochemical; settings: for IC50: read-out: CYP1A2 inhibition ∼ pIC50 (converted)
T1 construct: purchased Corning Inc., Corning, NY
T1 sequence (P05177 1-516): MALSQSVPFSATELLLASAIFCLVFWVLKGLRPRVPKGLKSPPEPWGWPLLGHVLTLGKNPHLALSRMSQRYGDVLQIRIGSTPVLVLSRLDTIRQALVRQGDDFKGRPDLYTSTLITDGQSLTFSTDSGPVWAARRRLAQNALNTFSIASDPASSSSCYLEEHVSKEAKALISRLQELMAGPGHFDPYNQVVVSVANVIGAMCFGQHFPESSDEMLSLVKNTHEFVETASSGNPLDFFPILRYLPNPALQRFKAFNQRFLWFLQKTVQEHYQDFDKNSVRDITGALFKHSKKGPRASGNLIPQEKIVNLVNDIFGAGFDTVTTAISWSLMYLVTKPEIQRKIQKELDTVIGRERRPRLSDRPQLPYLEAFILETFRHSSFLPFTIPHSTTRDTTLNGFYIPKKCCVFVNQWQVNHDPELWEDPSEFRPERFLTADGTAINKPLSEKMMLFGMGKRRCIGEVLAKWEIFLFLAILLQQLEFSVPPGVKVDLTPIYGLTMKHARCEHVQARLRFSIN
Protocol: Inhibition of CYP1A2 activity was determined using commercial heterologously expressed human CYP1A2 enzyme (Corning Inc., Corning, NY) essentially as described previously.

ERα = biological target: T2, ERα (Homo sapiens, UniProt P03372); test: PolarScreen ER Alpha Competitor Assay (fluorescence polarisation); assay type: binding; settings: for IC50: 25 nM ERα, 4.5 nM fluormone, read-out: ER binding pIC50 (converted)
T2 construct: purchased Life Technologies, Carlsbad, CA
T2 sequence (P03372 1-595): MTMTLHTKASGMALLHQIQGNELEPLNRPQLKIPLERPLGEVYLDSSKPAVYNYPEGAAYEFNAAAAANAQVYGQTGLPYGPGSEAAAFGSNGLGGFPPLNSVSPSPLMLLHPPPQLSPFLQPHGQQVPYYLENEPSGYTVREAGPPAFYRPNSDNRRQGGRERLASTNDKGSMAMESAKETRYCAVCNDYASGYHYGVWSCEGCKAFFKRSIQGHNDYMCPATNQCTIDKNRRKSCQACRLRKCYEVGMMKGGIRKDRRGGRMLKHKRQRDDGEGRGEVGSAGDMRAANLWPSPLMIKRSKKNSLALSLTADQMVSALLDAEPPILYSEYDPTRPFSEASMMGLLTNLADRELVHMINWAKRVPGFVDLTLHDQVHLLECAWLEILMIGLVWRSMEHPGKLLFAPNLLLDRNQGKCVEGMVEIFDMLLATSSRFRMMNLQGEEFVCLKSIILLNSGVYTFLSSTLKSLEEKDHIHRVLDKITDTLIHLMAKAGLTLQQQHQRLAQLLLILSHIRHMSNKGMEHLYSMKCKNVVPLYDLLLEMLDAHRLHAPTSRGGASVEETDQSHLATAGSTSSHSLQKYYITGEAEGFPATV
Protocol: The pIC50 values of the molecules (Table 1) were measured using green PolarScreen™ ER Alpha Competitor Assay (Life Technologies, Carlsbad, CA) kit, following the protocol provided by the manufacturer as previously described. The final concentration of the molecules ranged between 0.0007 and 10,000 nM in the prepared dilution series. […] After mixing the assay plate, it was incubated for 2 h at the room temperature.

recombinant human HSD2 = biological target: T3, recombinant human HSD2 (Homo sapiens, UniProt P37059); test: HSD2 inhibition, HPLC assay of [3H]-E2 to [3H]-E1 conversion; assay type: biochemical; settings: read-out: HSD2 inhibition at 1 µM
T3 construct: made in house; host or cells: Sf9 insect cells
T3 sequence (P37059 1-387): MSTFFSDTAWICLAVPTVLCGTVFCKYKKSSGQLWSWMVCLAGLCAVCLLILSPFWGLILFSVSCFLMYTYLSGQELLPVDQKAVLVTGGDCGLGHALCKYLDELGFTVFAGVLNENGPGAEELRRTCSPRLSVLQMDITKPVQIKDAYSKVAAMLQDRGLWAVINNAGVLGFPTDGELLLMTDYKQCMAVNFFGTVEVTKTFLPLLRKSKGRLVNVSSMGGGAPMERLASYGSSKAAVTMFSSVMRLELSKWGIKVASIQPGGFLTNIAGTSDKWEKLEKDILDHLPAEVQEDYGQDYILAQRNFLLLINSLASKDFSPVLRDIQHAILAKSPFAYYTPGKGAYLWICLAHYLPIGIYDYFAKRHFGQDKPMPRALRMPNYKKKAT
Protocol: The inhibition was determined by HPLC using recombinant human HSD1 and HSD2 proteins as described in a prior study. In short, recombinant human HSD1 and HSD2 were produced in Sf9-insect cells. […]. After incubation, the reaction was stopped by addition of […] 10% trichloroacetic acid per sample. After incubation the substrate and the product of enzymatic conversion [3H]-E1 and [3H]-E2 were separated and quantified by HPLC (Alliance 2790, Waters, Milford, MA) connected to an online counter (Packard Flow Scintillation Analyser; Perkin Elmer Inc., Waltham, […]). The ratio of [3H]-E1 converted to [3H]-E2 or vice versa determines the conversion percentage of the samples. Inhibition was measured in three concentrations (100 nM, 1, and 5 µM) in order to follow the progression of inhibition efficiencies. Inhibition efficiencies of the tested inhibitors were calculated by comparing the conversion percentages of the samples including inhibitors with those of conversion controls (without inhibitors).

IC50 [1] | IC50 (ERα) | inhibition at 1 µM (recombinant human HSD2) | CYP1A2 inhibition ∼ pIC50 [1] | ER inhibition (in words) (ERα) | Structure (SMILES)
85.1 µM | > 10 µM | 27% | – | – | COc1ccc(-c2cc3cccc(O)c3oc2=O)cc1 [Compound 1, 8-hydroxy-3–(4-methoxyphenyl)-2H-chromen-2-one]
7.08 µM | > 10 µM | 42% | – | – | O=c1oc2ccccc2cc1-c1cccc(O)c1 [Compound 3, 3–(3-hydroxyphenyl)-2H-chromen-2-one]
0.129 µM | > 10 µM | 16% | – | – | O=c1oc2ccc(Cl)cc2cc1-c1cccc(O)c1 [Compound 4, 6-chloro-3–(3-hydroxyphenyl)-2H-chromen-2-one]
– | 0.708 µM | 31% | 4.52 | reasonable ER inhibition | COc1ccc2cc(-c3ccc(O)c(F)c3)c(=O)oc2c1 [Compound 6, 3–(3-fluoro-4-hydroxyphenyl)-7-methoxy-2H-chromen-2-one]
– | > 10 µM | 13% | 5.82 | – | COc1ccc2oc(=O)c(-c3ccc(O)c(F)c3)cc2c1 [Compound 7, 3–(3-fluoro-4-hydroxyphenyl)-6-methoxy-2H-chromen-2-one]

Structure (SMILES) | IC50 [1] | IC50 (ERα) | inhibition at 1 µM (recombinant human HSD2) | CYP1A2 inhibition ∼ pIC50 [1] | ER inhibition (in words) (ERα)
O=c1oc2ccc(O)cc2cc1-c1ccc(O)cc1 [Compound 2, 6-hydroxy-3–(4-hydroxyphenyl)-2H-chromen-2-one] | 33.1 µM | > 10 µM | 7% | – | –
